# Reference: US10697970B2, “S100A9 levels for predicting lenalidomide and erythropoietin responsiveness” (H. LEE MOFFITT CANCER CENTER AND RESEARCH INSTITUTE, INC., priority 2015, dated 2020)
# How the values were obtained:
# U2AF1-S34F mutant cells = experiment: Nuclear β-catenin confocal microscopy in U2AF1-S34F mutant TF-1 cells; assay type: cell-based; settings: 24 hours treatment
# [1] = test system: SF3B1-K700E mutant-expressing BM cells; experiment: ASC staining flow cytometry (inflammasome formation) in SF3B1-K700E BM cells; assay type: cell-based, mouse; settings: 24 hours treatment
# Protocol: Staining was carried out as described ([…], et al. J Immunol. 2015 194(1):455-62). Briefly, cell pellets were resuspended in 1 mL of prewarmed BD Permeabilization Buffer III, and incubated on ice for 30 minutes. Cells were washed 2× with staining buffer. Following washing, cells were stained with rabbit-anti-ASC primary antibodies at a 1:1500 dilution and incubated for 90 minutes. Cells were washed, stained with secondary antibodies at a dilution of 1:1500, and incubated for 45 minutes. Cells were washed, and sample acquisitions were carried out using a BD LSR II flow cytometer and FACSDiva software.
# [2] = test system: SF3B1-K700E-expressing mutant BM cells; experiment: ROS detection in SF3B1-K700E BM cells; assay type: cell-based, mouse
# Excerpt: (§1) ROS were detected using CM-H2DCFDA and Cell ROX® Deep Red Reagent according to manufacturer's protocol (Life Technologies).
# [3] = test system: SF3B1-K700E mutant-expressing BM cells; experiment: Nuclear β-catenin confocal microscopy in SF3B1-K700E BM cells; assay type: cell-based, mouse; settings: 24 hours treatment
# Protocol: (§2) MDS and normal donor BM-MNC and mouse BM cells were stained with 30×FAM-FLICA® Caspase-1 solution at a ratio of 1:30 for 2 hours at 37° C. Cells were washed and cytospins were generated using a 5 minutes centrifugation at 450 rpm. Slides were fixed at 37° C. for 10 minutes using BD Cytofix Fixation Buffer (BD Biosciences), and subsequently washed using PBS. Cells were permeabilized with 0.1% Triton X-100/2% BSA in PBS for 15 minutes at room temperature. After washing with PBS, cells were blocked using 2% BSA in PBS for 30 minutes at room temperature, and washed again. Cells were incubated with the appropriate primary antibody overnight (1:400 for NLRP3, 1:20 for β-catenin) at 4° C. The next day, cells were washed with PBS and incubated with the appropriate secondary antibodies (1:500) for 1 hour at room temperature. After washing, cells were covered with ProLong Gold Antifade Reagent with DAPI prior to the addition of a coverslip (Life Technologies). Co-localization of a-caspase-1 with NLRP3 inflammasome complexes was assessed using a Leica TCS SP5 AOBS Laser Scanning Confocal microscope (Leica Microsystems). Analysis of the inflammasome images was performed with Definiens Developer 2.0 (Definiens AG). The software was used to segment cells based on brightness and size thresholds, followed by a watershed segmentation algorithm. […]
# normal BM-MNC [4] = experiment: Nuclear β-catenin confocal microscopy in normal BM-MNC; assay type: cell-based, human
# Protocol: as §2
# HepG2 cells = experiment: Epo elaboration by HepG2 cells (ELISA); assay type: cell-based, human; settings: for suppression of Epo production by the inflammatory protein alone: HepG2, vehicle control arm of lenalidomide experiment, S100A9 1 μg/ml or TNFα 10 ng/ml
# Protocol: HepG2 cells, acquired from American Type Culture Collection (ATCC, Manassas, Va.), were grown in EMEM supplemented with 10% FBS and 1% penicillin/streptomycin solution. Cells were maintained at 37° C. under 5% CO2.
# Quantitation of human S100A9/MRP14 in patient serum and supernatant of the HepG2 cell line was performed using CircuLex S100A9/MRP14 ELISA Kit (MBL, Nagano, Japan). Quantitative measurement of human TNFα and IL-1β from serum patients and supernatant of HepG2 cell line were performed using Human IL-1β ELISA Kit and Human TNFα ELISA Kit (Life Technologies, Carlsbad, Calif., USA). Quantitation of human Epo in patient serum and HepG2 cell line supernatant was performed using Human Erythropoietin ELISA kit (Stemcell Technologies, Vancouver, BC, Canada). All samples were performed in duplicate.
# MDS patients = settings: MDS patients; cited from earlier work
# U937 cells [5] = experiment: Pyroptosis / active caspase-1 flow cytometry in U937 cells treated with rhS100A9; assay type: cell-based
# Protocol: Monocytic U937 cells were treated with the indicated concentrations of rhS100A9 for 24 hours, or with 5 μg/mL rhS100A9 for the indicated time points. Subsequently, cells were stained with 30×FAM-FLICA® Caspase-1 solution at a ratio of 1:30 for 2 hours at 37° C. Cells were washed, resuspended in 1× binding buffer, and stained with Annexin-V:PE at a dilution of 1:30 for 15 minutes at room temperature. 1× binding buffer was added to a final volume of 350 μL. Sample acquisitions were carried out using a BD FACSCalibur flow cytometer (BD Biosciences). Data were analyzed using FlowJo 9.7.5 software.
# U937 cells [6] = experiment: a-caspase-1/NLRP3 confocal microscopy (inflammasome formation) in U937 cells; assay type: cell-based; settings: U937, 5 μg/mL rhS100A9, 24 hours
# normal BM-MNC [7] = experiment: qPCR of pyroptosis-associated genes in normal BM-MNC treated with rhS100A9; assay type: cell-based, human; settings: normal BM-MNC (n=2), 1 μg/mL rhS100A9, 24 hours
# Protocol: RNA was isolated from BM-MNC using the RNeasy Mini Kit (Qiagen). cDNA was produced using the iScript cDNA Synthesis Kit (Bio-Rad). Sequences for primers can be found in Table 1. GAPDH mRNA was used for transcript normalization. cDNA was amplified using the iQ SYBR Green Supermix and the CFX96 Real-Time PCR Detection System (Bio-Rad). PCR conditions were as follows: 10 minutes at 95° C., followed by 40 cycles of amplification (15 seconds at 95° C. and 1 minute at 60° C.). Relative gene expression was calculated using the […] method.
# normal BM-MNC [8] = experiment: a-caspase-1/NLRP3 confocal microscopy in normal BM-MNC treated with rhS100A9; assay type: cell-based, human; settings: 5 μg/mL rhS100A9, 24 hours
# Protocol: (§3) MDS and normal donor BM-MNC and mouse BM cells were stained with 30×FAM-FLICA® Caspase-1 solution at a ratio of 1:30 for 2 hours at 37° C. Cells were washed and cytospins were generated using a 5 minutes centrifugation at 450 rpm. Slides were fixed at 37° C. for 10 minutes using BD Cytofix Fixation Buffer (BD Biosciences), and subsequently washed using PBS. Cells were permeabilized with 0.1% Triton X-100/2% BSA in PBS for 15 minutes at room temperature. After washing with PBS, cells were blocked using 2% BSA in PBS for 30 minutes at room temperature, and washed again. Cells were incubated with the appropriate primary antibody overnight (1:400 for NLRP3, 1:20 for β-catenin) at 4° C. The next day, cells were washed with PBS and incubated with the appropriate secondary antibodies (1:500) for 1 hour at room temperature. After washing, cells were covered with ProLong Gold Antifade Reagent with DAPI prior to the addition of a coverslip (Life Technologies). Co-localization of a-caspase-1 with NLRP3 inflammasome complexes was assessed using a Leica TCS SP5 AOBS Laser Scanning Confocal microscope (Leica Microsystems). Analysis of the inflammasome images was performed with Definiens Developer 2.0 (Definiens AG). The software was used to segment cells based on brightness and size thresholds, followed by a watershed segmentation algorithm. Intensity values and Pearson's correlation coefficient were extracted from the segmented cells. For β-catenin image analysis, confocal images were imported into Definiens Tissue Studio v3.0, 64 Dual in .tif format. Cells were separated from background using the RGB thresholds. Nuclei were identified by setting thresholds in the DAPI channel. Typical cells averaged 60 microns. The red intensity (β-catenin) in the nucleus and cytoplasm was established by setting thresholds to low, medium and high in the red channel on a scale of 0-255 in the red channel.
# U937 cells [9] = experiment: Pore formation assay (ethidium bromide uptake) in U937 cells; assay type: cell-based; settings: U937, 12.5 μg/mL EB, 5 μg/mL rhS100A9
# [10] = test system: BM cells isolated from WT mice; experiment: a-caspase-1/NLRP3 confocal microscopy in WT mouse BM cells treated with rhS100A9; assay type: cell-based; settings: 5 μg/mL rhS100A9, 24 hours
# Protocol: as §3
# U937 cells [11] = experiment: ROS detection by flow cytometry in U937 cells; assay type: cell-based; settings: U937, 5 μg/mL rhS100A9, 24 hours, compared to untreated cells
# Excerpt: as §1
# U937 cells [12] = experiment: Comet assay (DNA damage) in U937 cells; assay type: cell-based; settings: U937, 5 μg/mL rhS100A9, 24 hours, compared to untreated cells
# Protocol: Monocytic U937 cells were treated with 5 μg/mL rhS100A9 for 24 hr. DNA damage was measured by single cell gel electrophoresis using alkaline CometAssay® according to manufacturer's protocol (Trevigen Inc.).
# U937 cells [13] = experiment: Nuclear β-catenin confocal microscopy in U937 cells; assay type: cell-based; settings: U937, 5 μg/mL rhS100A9, 24 hours, compared to untreated cells
# [14] = U937, increasing concentrations of rhS100A9, 24 hours
molecule,measurement,setting,value
c1ccc2c(c1)[I+]c1ccccc1-2 [DPI],β-catenin activation in mutant cells,U2AF1-S34F mutant cells,effectively reduced
same,inflammasome formation (ASC),[1],significantly reduced
same,mean percentage of ROS+ cells and ROS MFI,[2],extinguished below the level of WT controls
same,percentage of cells with elevated levels of nuclear β-catenin,[3],significantly reduced
"CC(=O)N[C@@H](CS)C(=O)O [NAC, N-acetylcysteine]",S100A9-triggered nuclear translocation of β-catenin,normal BM-MNC [4]; normal BM-MNC treated with S100A9 plus anti-oxidant,abolished
same,β-catenin activation in mutant cells,U2AF1-S34F mutant cells,effectively reduced
same,inflammasome formation (ASC),[1],significantly reduced
same,mean percentage of ROS+ cells and ROS MFI,[2],extinguished below the level of WT controls
same,percentage of cells with elevated levels of nuclear β-catenin,[3],significantly reduced
IL-1β: inflammatory cytokine interleukin-1β purchased from Sigma-Aldrich,reduction in Epo elaboration,"HepG2 cells; HepG2, 10 ng/ml, 24 h exposure",60%
TNFα,reduction in Epo elaboration,"HepG2 cells; HepG2, 10 ng/ml, 24 h exposure",40%
same,suppression of Epo production by the inflammatory protein alone,HepG2 cells,30%
erythropoietin: erythropoietin treatment for anemia in MDS,patients with MDS in whom treatment may improve anemia,MDS patients,15-20%
"rhS100A9: Recombinant human S100A9, DAMP/alarmin protein, ligand for CD33 and TLR4, generated as previously described",activation of caspase-1,"U937 cells [5]; U937, 5 μg/mL rhS100A9 over time",time-dependent increase
same,a-caspase-1 MFI and percentage of a-caspase-1+ cells,U937 cells [5]; [14],corresponding increase
same,fraction of pyroptotic cells,U937 cells [5]; [14],concentration-dependent increase
same,levels of NLRP3 inflammasome complexes,U937 cells [6],markedly increased
same,expression of pyroptosis-associated genes,normal BM-MNC [7],significantly up-regulated
same,NLRP3 levels induced,normal BM-MNC [8],47.1 fold
same,a-caspase-1 levels induced,normal BM-MNC [8],2.5 fold
same,formation of NLRP3 inflammasomes,normal BM-MNC [8],2.9 fold
same,uptake of ethidium bromide,U937 cells [9],rapid and substantial uptake
same,inflammasome complexes,[10],marked induction
same,MFI of NLRP3,[10]; versus controls,significantly increased
same,MFI of a-caspase-1,[10]; versus controls,significantly increased
same,increase in mean percentage of ROS-positive cells,U937 cells [11],2.9 fold
same,increase in DNA damage,U937 cells [12],4.1 fold
same,levels of nuclear (activated) β-catenin,U937 cells [13],marked increases
same,levels of nuclear β-catenin,"normal BM-MNC [4]; normal BM-MNC, 5 μg/mL rhS100A9, 24 hours, compared to controls",elevated levels
same,reduction in Epo elaboration,"HepG2 cells; HepG2, 1 μg/ml, 24 h exposure",95%
same,Epo elaboration,"HepG2 cells; HepG2, 10 to 20 μg/ml, 24 h exposure",completely suppressed
same,suppression of Epo production by the inflammatory protein alone,HepG2 cells,95%
